Reference: patent US11976083B2, “Inhibitors of peptidylarginine deiminases” (Gilead Sciences, Inc., priority 2020, dated 2024)

Biological target: T1, human PAD4 (Homo sapiens, UniProt Q9UM07)
T1 construct: human PAD4 (NM_012387), A2-P663, was PCR amplified; His-SUMO (N, cleaved yes); made in house; host or cells: E. coli BL21(DE3)
Assay: In vitro PAD4 BAEE biochemical assay
Conditions: BAEE substrate 3 mM, 5 nM PAD4, 2 mM calcium chloride; geometric mean of multiple experiments
Outline: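 Recombinant PAD4 (5 nM final) with 2 mM CaCl2 was preincubated with compound for 30 min at 25 °C in MOPS pH 7.6 buffer with DTT, then reacted with 3 mM BAEE for 2 h at 25 °C. Released ammonia was detected fluorimetrically with o-phthalaldehyde/DTT; IC50 from four-parameter fit, geometric mean of experiments.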

T1 sequence (Q9UM07 2-663): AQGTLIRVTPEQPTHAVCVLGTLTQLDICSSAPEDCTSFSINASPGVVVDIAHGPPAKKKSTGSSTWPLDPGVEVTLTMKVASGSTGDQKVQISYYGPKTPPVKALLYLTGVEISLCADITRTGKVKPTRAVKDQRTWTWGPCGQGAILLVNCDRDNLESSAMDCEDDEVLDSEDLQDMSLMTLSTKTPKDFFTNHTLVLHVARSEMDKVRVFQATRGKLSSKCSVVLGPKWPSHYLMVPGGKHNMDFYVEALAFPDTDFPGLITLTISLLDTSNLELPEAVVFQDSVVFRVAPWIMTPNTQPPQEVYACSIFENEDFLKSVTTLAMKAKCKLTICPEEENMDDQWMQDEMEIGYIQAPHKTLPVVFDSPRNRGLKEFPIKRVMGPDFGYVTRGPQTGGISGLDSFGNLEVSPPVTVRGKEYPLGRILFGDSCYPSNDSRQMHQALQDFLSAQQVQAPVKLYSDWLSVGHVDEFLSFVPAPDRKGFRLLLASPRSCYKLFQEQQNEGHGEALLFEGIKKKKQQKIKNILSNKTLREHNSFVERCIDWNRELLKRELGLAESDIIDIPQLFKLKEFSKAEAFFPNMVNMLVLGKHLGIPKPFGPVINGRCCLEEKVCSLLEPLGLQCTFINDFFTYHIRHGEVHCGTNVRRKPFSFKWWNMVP

In order of falling IC50:
1. COCCn1c(-c2cc3ccc4nc3n2CCCCCc2nccnc2C(=O)N[C@@H]4C)nc2cc(C(=O)N3CC[C@@H](OC)[C@@H](N)C3)cc(OC)c21 [Example 510, (2~{R})-17-[5-[(3~ {S),4~{R})-3-amino-4-methoxy-piperidine-1-carbonyl]-7-methoxy-1-(2-methoxyethyl)benzimidazol-2-yl]-2-methyl-3,6,9,16,22-pentazatetracyclo[14.5.2.0^ {5,10}.0^{19,23}] tricosa-1(22),5(10),6,8,17,19 (23),20-heptaen-4-one]  277 nM
2. C[C@H]1NC(=O)C(C)(C)CCCCCCn2c(-c3nc4cc(C(=O)N[C@H]5CNCC[C@@H]5F)cc(Cl)c4n3C)cc3ccc1nc32 [Example 501, 7-chloro-~{N}-[(3~ {S},4~{S})-4-fluoro-3-piperidyl]-1-methyl-2-[(11~{R})-8,8,11-trimethyl-9-oxo-1,10,19-triazatricyclo[10.5.2.0^{15,18}]nonadeca-12(19),13,15(18), 16-tetraen-17-yl] benzimidazole-5-carboxamide]  271 nM
3. CO[C@@H]1CCN(C(=O)c2cc(Cl)c3c(c2)nc(-c2cc4ccc5nc4n2CCCCCc2nccnc2C(=O)N[C@@H]5C)n3C)C[C@@H]1N [Example 504, (2~{R})-17-[5-[(3~ {S},4~{R})-3-amino-4-methoxy-piperidine-1-carbonyl]-7-chloro-1-methyl-benzimidazol-2-yl]-2-methyl-3,6,9,16,22-pentazatetracyclo [14.5.2.0^{5,10}.0^{19, 23}]tricosa-1(22),5(10), 6,8,17,19(23),20-heptaen-4-one]  172 nM
4. C[C@H]1NC(=O)[C@H]2C[C@@H]2CCCCn2c(-c3nc4cc(C(=O)N[C@H]5CNCC[C@@H]5F)c(F)cc4n3C)cc3ccc1nc32 [Example 499, 6-fluoro-~{N}-[(3~ {S},4~{S})-4-fluoro-3-piperidyl]-1-methyl-2-[(2~{R},7~{S})-2-methyl-4-oxo-3,12,18-triazatetracyclo [10.5.2.0^{5,7}.0^{15,19}]nonadeca-1(18), 13,15(19),16-tetraen-13-yl]benzimidazole-5-carboxamide]  163 nM
5. COc1cc(C(=O)N[C@H](C)CN)cc2nc(-c3cc4ccc5nc4n3CCCCC[C@@H]3CC3C(=O)N[C@@H]5C)n(C)c12 (some centres unmarked) [Example 509, ~{N}-[(1~{R})-2-amino-1-methyl-ethyl]-7-methoxy-1-methyl-2-[(2~{R},7~{R})-2-methyl-4-oxo-3,13,19-triazatetracyclo[11.5.2.0^ {5,7}.0^{16,20}]icosa-1(19),14,16(20),17-tetraen-14-yl]benzimidazole-5-carboxamide]  146 nM
6. C[C@H]1NC(=O)C(C)(C)CCCCCCn2c(-c3nc4cc(C(=O)N[C@H]5CNCC[C@@H]5F)c(F)cc4n3CCOC(F)F)cc3ccc1nc32 [Example 502, 1-[2-(difluoromethoxy)ethyl]-6-fluoro-~{N}-[(3~ {S},4~{S})-4-fluoro-3-piperidyl]-2-[(11~{R})-8,8,11-trimethyl-9-oxo-1,10,19-triazatricyclo[10.5.2.0^ {15,18}]nonadeca-12(19),13,15(18),16-tetraen-17-yl]benzimidazole-5-carboxamide]  128 nM
7. COc1cc(C(=O)N2CC[C@@H](OC)[C@@H](N)C2)cc2nc(-c3cc4ccc5nc4n3CCCCCc3cccnc3C(=O)N[C@@H]5C)n(C)c12 [Example 503, (2~{R})-17-[5-[(3~ {S},4~{R})-3-amino-4-methoxy-piperidine-1-carbonyl]-7-methoxy-1-methyl-benzimidazol-2-yl]-2-methyl-3,6,16,22-tetrazatetracyclo [14.5.2.0^{5,10).0^{19,23}] tricosa-1(22),5(10),6,8,17,19(23),20-heptaen-4-one]  110 nM
8. CO[C@@H]1CCN(C(=O)c2cc(Cl)c3c(c2)nc(-c2cc4ccc5nc4n2CCCCC[C@@H]2CC2C(=O)N[C@@H]5C)n3C)C[C@@H]1N (some centres unmarked) [Example 505, (2~{R},7~{R})-14-[5-[(3~{S},4~{R})-3-amino-4-methoxy-piperidine-1-carbonyl]-7-chloro-1-methyl-benzimidazol-2-yl]-2-methyl-3,13,19-triazatetracyclo[11.5.2.0^ {5,7}.0^{16,20}]icosa-1(19),14,16(20),17-tetraen-4-one]  97 nM
9. CO[C@@H]1CCN(C(=O)c2cc(OC(F)F)c3c(c2)nc(-c2cc4ccc5nc4n2CCCCC[C@@H]2C[C@H]2C(=O)N[C@@H]5C)n3C)C[C@@H]1N [Example 511, (2~{R},5~{R}, 7~{R})-14-[5-[(3~{S},4~{R})-3-amino-4-methoxy-piperidine-1-carbonyl]-7-(difluoromethoxy)-1-methyl-benzimidazol-2-yl]-2-methyl-3,13,19-triazatetracyclo[11.5.2.0^ {5,7}.0^{16,20}] icosa-1(19),14,16(20), 17-tetraen-4-one]  95 nM
10. C[C@H]1NC(=O)C(C)(C)CCCCCCn2c(-c3nc4cc(C(=O)N[C@H]5CNCC[C@@H]5F)ccc4n3C)cc3ccc1nc32 [Example 500, ~{N}-[(3~{S},4~ {S})-4-fluoro-3-piperidyl]-1-methyl-2-[(11~{R})-8,8,11-trimethyl-9-oxo-1,10,19-triazatricyclo[10.5.2.0^ {15,18}]nonadeca-12(19), 13,15(18),16-tetraen-17-yl]benzimidazole-5-carboxamide]  90 nM
11. CO[C@@H]1CCN(C(=O)c2cc(F)c3c(c2)nc(-c2cc4ccc5nc4n2CCCCC[C@@H]2CC2C(=O)N[C@@H]5C)n3C)C[C@@H]1N (some centres unmarked) [Example 512, (2~{R},5~{R},7~ {R})-14-[5-[(3~{S},4~{R})-3-amino-4-methoxy-piperidine-1-carbonyl]-7-fluoro-1-methyl-benzimidazol-2-yl]-2-methyl-3,13,19-triazatetracyclo[11.5.2.0^ {5,7}.0^{16,20}]icosa-1(19),14,16(20),17-tetraen-4-one]  65 nM
12. COc1cc(C(=O)N2CC3(CCCNC3)C2)cc2nc(-c3cc4ccc5nc4n3CCCCC[C@@H]3CC3C(=O)N[C@@H]5C)n(C)c12 (some centres unmarked) [Example 508, (2~{R},7~{R})-14-[5-(2,8-diazaspiro [3.5]nonane-2-carbonyl)-7-methoxy-1-methyl-benzimidazol-2-yl]-2-methyl-3,13,19-triazatetracyclo[11.5.2.0^ {5,7}.0^{16,20}]icosa-1(19),14,16(20),17-tetraen-4-one]  57 nM
13. C[C@H]1NC(=O)C2C[C@H]2CCCCCn2c(-c3nc4cc(C(=O)N5CCC[C@@H](N)C5)cc(Cl)c4n3C)cc3ccc1nc32 (some centres unmarked) [Example 506, (2~{R},7~{R})-14-[5-[(3~ {R})-3-aminopiperidine-1-carbonyl]-7-chloro-1-methyl-benzimidazol-2-yl]-2-methyl-3,13,19-triazatetracyclo[11.5.2.0^ {5,7}.0^{16,20}]icosa-1(19), 14,16(20),17-tetraen-4-one]  39 nM
14. C[C@H]1NC(=O)C2C[C@H]2CCCCCn2c(-c3nc4cc(C(=O)N[C@H]5CNCC[C@@H]5F)cc(Cl)c4n3C)cc3ccc1nc32 (some centres unmarked) [Example 507, 7-chloro-~{N}-[(3~ {S},4~{S})-4-fluoro-3-piperidyl]-1-methyl-2-[(2~{R},7~{R})-2-methyl-4-oxo-3,13,19-triazatetracyclo[11.5.2.0^ {5,7}.0^{16,20}]icosa-1 (19),14,16(20),17-tetraen-14-yl]benzimidazole-5-carboxamide]  32 nM
